Results reported in patent US11040949B2, “Compounds affecting pigment production and methods for treatment of bacterial diseases” (Versitech Limited, priority 2017, dated 2021).

Experiments:
[1] = target: 4,4-diapophytoene desaturase (CrtN) (Staphylococcus aureus, UniProt O07855); details: reference [5]; cited from earlier work
[2] = tested on: methicillin-resistant S. aureus (MRSA); assay: MRSA skin infection, wound closure; assay type: in vivo, mice; details: Day 7
Experimental: FIG. 11B are photos from the top view of mice with skin infection caused by MRSA before (at Day 0) and after different treatments (at Day 7): top left received 2% mupirocin via topical BID for 7 days; top right received 100 mg/kg linezolid via oral BID for 7 days; bottom received 30 mg/kg IM032 via oral BID for 7 days.
Visual wound healing/closure in different treatment groups of mice can be observed in FIG. 11B.

S. aureus COL [3] = assay: Hydrogen peroxide susceptibility assay; assay type: cell-based, Staphylococcus aureus; details: grown with NP16 (40 μM); 440 mM H2O2, 1 hr
Experimental: (§1) Hydrogen Peroxide Susceptibility Assay
(§2) S. aureus was grown in BHI with or without NP16 (40 μM). After 2 days, bacteria were washed twice in PBS, diluted to a concentration of 1×10^7 CFUs per 100 μl reaction mixture in a 96-well plate. Hydrogen peroxide (H2O2) in PBS was added to a 440 mM final concentration, and the plate was incubated for 1 hr at 37° C. with shaking. The reaction was stopped by the addition of 1,000 U/ml of exogenous catalase (Sigma-Aldrich, St. Louis, Mo.), and bacterial viability was assessed by plating dilutions on BHI agar plates.

USA300 = assay: Minimum inhibitory concentration (MIC) test; assay type: cell-based; details: Staphylococcus aureus
Experimental: Minimum Inhibitory Concentration (MIC) Tests
MIC was determined by inoculating 5×10^4 S. aureus cells in 100 μl BHI medium in 96-well plates with a serial dilution of antibiotics.

S. aureus COL [4] = assay: Bactericidal activity of human polymorphonuclear leukocytes; assay type: cell-based, Staphylococcus aureus; details: NP16-treated COL vs COL
Experimental: Bactericidal Activity of Polymorphonuclear Leukocytes
The killing of S. aureus by human polymorphonuclear leukocytes (PMNs) was determined as previously described, with some modifications. Briefly, PMNs (10^6) were mixed with ˜10^7 opsonized S. aureus bacteria MOI=10 in 24-well tissue culture plates. After centrifuged at 380 g for 8 min, plates were incubated at 37° C. for up to 1.5 h. PMNs were lysed with saponin (20 min on ice) and plated on BHIA plates. The percent survival was calculated by normalized with time zero. Statistics were performed with the Student's t-test (GraphPad Prism).

S. aureus USA300 = assay: In vitro staphyloxanthin production inhibition by NP-16 analogues; assay type: cell-based, Staphylococcus aureus; details: S. aureus USA300, methanol extract OD 450 nm, 300 nM to 700 nM
Experimental: Evaluation of NP-16 analogues in Staphyloxanthin production
The in vitro pigment inhibition studies were performed by S. aureus USA300 cultured in BHI with or without the presence of inhibitor compounds at 37° C. and 250 rpm for 36-48 hours. The bacteria were washed twice with PBS prior to the staphyloxanthin purification with methanol. The OD of the extracts were monitor at 450 nm using DTX880 multi-plate reader spectrophotometer (Beckman). The concentration range tested for the compounds were between 300 nM to 700 nM, and control groups were added with equal volume of DMSO.
The cytotoxicity of NP-16 and some of its analogues was tested against Raw 264.7 cells, and the cell tolerance of each compounds were documented in Table 3. Along with the in vitro staphyloxanthin production of the NP-16 analogues were being tested, the compounds can exert staphyloxanthin production inhibition. The staphyloxanthin from the overnight-cultured bacteria were extracted with methanol and quantified in via spectrophotometry. The results were presented in relative ratio to NP-16 in both the inhibition ratio as well as the TC50 (concentration for decreasing cell viability by 50%) in Table 3 (sample names correspond to those listed in Table 1).

[5] = target: T1, 4,4-diapophytoene desaturase (CrtN) (Staphylococcus aureus, UniProt Q99R76); assay: CrtN enzymatic assay; assay type: biochemical, S. aureus
T1 construct: made in house; host or cells: E. coli Rosetta (DE3)
T1 sequence (Q99R76 whole entry): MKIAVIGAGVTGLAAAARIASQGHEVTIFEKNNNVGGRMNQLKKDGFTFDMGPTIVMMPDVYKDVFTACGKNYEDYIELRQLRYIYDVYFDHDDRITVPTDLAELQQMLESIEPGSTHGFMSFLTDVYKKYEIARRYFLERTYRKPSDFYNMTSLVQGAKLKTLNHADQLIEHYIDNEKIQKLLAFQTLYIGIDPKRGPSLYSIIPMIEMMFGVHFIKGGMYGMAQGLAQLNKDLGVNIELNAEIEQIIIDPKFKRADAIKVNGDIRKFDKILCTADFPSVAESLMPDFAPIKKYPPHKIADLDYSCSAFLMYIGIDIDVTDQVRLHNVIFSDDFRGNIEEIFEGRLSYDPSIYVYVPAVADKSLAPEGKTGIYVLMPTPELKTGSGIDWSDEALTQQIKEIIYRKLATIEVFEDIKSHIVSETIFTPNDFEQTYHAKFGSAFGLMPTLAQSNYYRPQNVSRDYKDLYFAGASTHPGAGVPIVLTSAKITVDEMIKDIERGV
Experimental: crtN Expression, Purification and Enzymatic Assay
CrtN with a histidine-maltose binding protein (MBP) tag was overexpressed in E. coli Rosetta (DE3) cells. A 10 ml overnight culture was transferred into 1 L of LB medium supplemented with 100 μg/ml ampicillin. Induction was carried out with 1 mM IPTG for 12 hours at 16° C. at an OD of 0.6 at 600 nm. The cell lysate was loaded onto a Ni-NTA column, and CrtN was eluted using a 75-ml linear gradient of 0-0.4 M imidazole in 50 mM sodium phosphate buffer, with 400 mM sodium chloride, pH 6.6. The collected fractions were analysed by SDS-PAGE to confirm the peak for MBP-CrtN. The target peak fractions were concentrated and the buffer was exchanged to loading buffer without imidazole using a PD-10 column (GE Healthcare). The collected solution was treated with TEV protease at 4° C. overnight. The protein sample was applied to a maltose column, and the flow-through was collected as native CrtN protein. For enzyme assay, 10 μg of purified CrtN was incubated with 100 μl of 4,4′-diapophytoene liposomes (containing 5 nmol of 4,4′-diapophytoene), 150 μM FAD and buffer II (20 mM phosphate buffer pH 8.0, 100 mM NaCl) in a total volume of 660 μl at 37° C. for 2 h (standard assay). The reaction was stopped by adding 1 volume of CHCl3: MeOH (2:1, v/v). Followed by mixing, the sample was centrifuged at 16,000 g for 10 min. […]

[6] = tested on: non-pigmented strain RN6390; assay: Hydrogen peroxide susceptibility assay, non-pigmented strain; assay type: cell-based, Staphylococcus aureus; details: non-pigmented strain RN6390, with or without NP16
Experimental: as §1, §2

MDCK cells = assay: Cytotoxic activity on MDCK cells; assay type: cell-based
[7] = tested on: clinical isolate S. aureus strain AE052; assay: Murine intraperitoneal infection model, kidney bacterial loads; assay type: in vivo, BALB/c mice
Experimental: (§3) For other S. aureus sub-type, eight- to ten-week-old female BALB/c mice were injected intraperitoneally (i.p) with 4×10^8 CFUs of early stationary phase S. aureus COL. After 3 d, animals were euthanized, the liver and spleen were isolated, homogenized in PBS, and plated on to obtain viable counts. For the treatment study, mice were randomized into two groups at the start of the experiment and administered, i.p., either 0.35 mg of NP16 or PBS with 5% Tween-80 as a control, twice per day, starting on d −1 to d 2 (a total of eight doses for each). Intraperitoneal challenge with 4×10^8 CFUs of early stationary phases S. aureus COL was performed on d 0. The mice were sacrificed on d 3 for enumeration of bacterial CFUs in liver and spleen homogenates.
For the clinical isolate S. aureus strain AE052, all operations were similar to those used for the COL strain, except 10^8 CFUs of early stationary phase bacteria were used in the infection model, and kidneys were collected for monitoring bacterial loads. Statistics were performed using the Student's t-test (GraphPad Prism).
(§4) With the same intraperitoneal challenge used in FIGS. 3a, 3b and 3e, one group of mice (n=14) was treated with 0.35 mg of NP16 twice per day (days −1, 0, 1 and 2), and a second group (n=12) with a vehicle control.

S. aureus COL [8] = assay: Murine intraperitoneal infection model, liver and spleen CFUs; assay type: in vivo, BALB/c mice
Experimental: as §3, §4

Chain of 4,4-diapophytoene desaturase (CrtN) (Staphylococcus aureus, UniProt O07855) (O07855 whole entry): as the sequence (Q99R76 whole entry) above

In the case of `c1ccc(Nc2ccccc2)cc1` [Diphenylamine], the “inhibitor of CrtN, level” value [1] is given as “high micromolar level”.

For `CC(=O)NC[C@H]1CN(c2ccc(N3CCOCC3)c(F)c2)C(=O)O1` [Linezolid, linezolid, reference compound], the “percentage of wound closure” value ([2]; 100 mg/kg oral twice a day) was 48.4%.

With `C/C(=C\C(=O)OCCCCCCCCC(=O)O)C[C@@H]1OC[C@H](C[C@@H]2O[C@H]2[C@@H](C)[C@H](C)O)[C@@H](O)[C@H]1O` [Mupirocin, mupirocin, reference compound] the “percentage of wound closure” value ([2]; 2% topical twice a day) was 43.2%.

In the case of `O=C(/C=C/c1ccccc1)Nc1ccc(S(=O)(=O)N2CCCC2)cc1` [NP16, 3-phenyl-N-[4-(1-pyrrolidinylsulfonyl)-phenyl]acrylamide], the “susceptibility to hydrogen peroxide killing” value (S. aureus COL [3]) is reported as “increase in the susceptibility of the pathogen to hydrogen peroxide killing”, the MIC (USA300) is reported as greater than 500 µM and the “survival in human neutrophils” value (S. aureus COL [4]) is reported as “COL survived significantly better than RN6390 and NP16-treated COL”. For the same compound, the “Relative ratio to NP16 based on inhibition ratio” value (S. aureus USA300) was 1, the “inhibition of CrtN” value [5] was “inhibitor for CrtN” and the “susceptibility to hydrogen peroxide killing” value [6] was “susceptibility was similar irrespective of NP16 treatment”. For the same compound, the “effect on the growth of MDCK cells” value (MDCK cells) was “no effect on the growth of MDCK cells”, the “bacterial counts in the kidneys” value ([7]; 0.35 mg twice per day i.p., 72 hours, vs control group, P<0.001) was “significantly lower” and the “mice below the detection threshold (kidneys)” value ([7]; n=10, versus 2 of 10 in the control group) was 6 of 10. The “decrease in surviving bacteria” value ([7]; treatment group infected with AE052) was 98%, the “bacterial counts in the livers and spleens” value (S. aureus COL [8]; 0.35 mg twice per day i.p. (days -1, 0, 1, 2), 72 hours, vs control group, P<0.01) was “significantly lower” and the “decrease in surviving bacteria” value (S. aureus COL [8]; treatment group infected with COL) was 98%.
